“And” between values parts separate entries of the source, which are not always exact repeats. Equal entries are not always repeated. Toxic doses and inconclusive results are not listed. Rule as the data show it: active = T/C of 150% or more; inactive = T/C below 125%.
Tested on: L1210 leukemia ip in BDF1 mice, survival T/C
Test: NCI In Vivo Anticancer Drug Screen. Data for tumor model L1210 Leukemia (intraperitoneal) in B6D2F1 (BDF1) mice
Details: endpoint: mean survival time, higher = longer survival
Procedure, shortened: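 Transplanted-tumor mice were given test agent; controls received vehicle only. Survival readings from the two groups were divided (treated over control).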

[1] = dose: 100.0 mg/kg/injection, schedule: Q04DX003 (ip), vehicle: saline
[2] = dose: 200.0 mg/kg/injection, schedule: Q04DX003 (ip), vehicle: saline
[3] = dose: 400.0 mg/kg/injection, schedule: Q04DX003 (ip), vehicle: saline
[4] = dose: 100.0 mg/kg/injection, schedule: Q01DX001 (ip), vehicle: saline
[5] = dose: 200.0 mg/kg/injection, schedule: Q01DX001 (ip), vehicle: saline
[6] = dose: 400.0 mg/kg/injection, schedule: Q01DX001 (ip), vehicle: saline

Measured: T/C

Cc1nnc(/N=C/c2ccccc2)n1/N=C/c1ccccc1
inactive: dose: 25.0 mg/kg/injection, schedule: Q04DX002 (ip), vehicle: Klucel (hydroxypropylcellulose) (HPC) 90 % of control | dose: 50.0 mg/kg/injection, schedule: Q04DX002 (ip), vehicle: Klucel (hydroxypropylcellulose) (HPC) 90 % of control | dose: 100.0 mg/kg/injection, schedule: Q04DX002 (ip), vehicle: Klucel (hydroxypropylcellulose) (HPC) 96 % of control

OCCNCc1ccc2ccccc2c1
inactive: dose: 150.0 mg/kg/injection, schedule: Q01DX015 (ip), vehicle: saline 90 % of control

CC(C)c1cccc(OC(=O)N(C)[Si](C)(C)C)c1
inactive: dose: 5.0 mg/kg/injection, schedule: Q01DX001 (ip), vehicle: saline 105 % of control | dose: 10.0 mg/kg/injection, schedule: Q01DX001 (ip), vehicle: saline 97 % of control | dose: 20.0 mg/kg/injection, schedule: Q01DX001 (ip), vehicle: saline 101 % of control | dose: 40.0 mg/kg/injection, schedule: Q01DX001 (ip), vehicle: saline 101 % of control

CCOC(=O)C(C#N)CCC#N (stereo unspecified)
inactive: dose: 100.0 mg/kg/injection, schedule: Q01DX009 (ip), vehicle: saline with Tween-80 113 % of control | dose: 200.0 mg/kg/injection, schedule: Q01DX009 (ip), vehicle: saline with Tween-80 98 % of control | dose: 400.0 mg/kg/injection, schedule: Q01DX009 (ip), vehicle: saline with Tween-80 104 % of control

CSc1cccc(NC(C)=O)c1
inactive: dose: 100.0 mg/kg/injection, schedule: Q01DX009 (ip), vehicle: saline 97 % of control | [1] 93 % of control | dose: 200.0 mg/kg/injection, schedule: Q01DX009 (ip), vehicle: saline 113 % of control | [2] 97 % of control | dose: 400.0 mg/kg/injection, schedule: Q01DX009 (ip), vehicle: saline 104 % of control | [3] 101 % of control

c1ccn(-c2nccs2)c1
inactive: dose: 100.0 mg/kg/injection, schedule: Q04DX003 (ip), vehicle: saline with Tween-80 103 % of control | dose: 200.0 mg/kg/injection, schedule: Q04DX003 (ip), vehicle: saline with Tween-80 113 % of control

CCCNC(=O)/C=C/C(=O)NCCC
inactive: [1] 100 % of control | [2] 100 % of control | [3] 100 % of control

CC(C)C(CCN1CCCCC1)(CNC1=NCCN1)c1cccc2ccccc12 (stereo unspecified)
inactive: dose: 3.12 mg/kg/injection, schedule: Q04DX002 (ip), vehicle: Klucel (hydroxypropylcellulose) (HPC) 103 % of control | dose: 5.0 mg/kg/injection, schedule: Q01DX009 (ip), vehicle: Klucel (hydroxypropylcellulose) (HPC) 99 % of control | dose: 6.25 mg/kg/injection, schedule: Q04DX002 (ip), vehicle: Klucel (hydroxypropylcellulose) (HPC) 100 % of control | dose: 10.0 mg/kg/injection, schedule: Q01DX009 (ip), vehicle: Klucel (hydroxypropylcellulose) (HPC) 102 % of control | dose: 12.5 mg/kg/injection, schedule: Q04DX002 (ip), vehicle: Klucel (hydroxypropylcellulose) (HPC) 103 % of control | dose: 12.5 mg/kg/injection, schedule: Q04DX003 (ip), vehicle: Klucel (hydroxypropylcellulose) (HPC) 92 % of control | dose: 20.0 mg/kg/injection, schedule: Q01DX009 (ip), vehicle: Klucel (hydroxypropylcellulose) (HPC) 89 % of control | dose: 25.0 mg/kg/injection, schedule: Q04DX003 (ip), vehicle: Klucel (hydroxypropylcellulose) (HPC) 97 % of control | dose: 50.0 mg/kg/injection, schedule: Q04DX003 (ip), vehicle: Klucel (hydroxypropylcellulose) (HPC) 90 % of control

COc1cc(CCN)cc(OC)c1OC
inactive: dose: 75.0 mg/kg/injection, schedule: Q01DX001 (ip), vehicle: saline 104 % of control | dose: 150.0 mg/kg/injection, schedule: Q01DX001 (ip), vehicle: saline 103 % of control | dose: 300.0 mg/kg/injection, schedule: Q01DX001 (ip), vehicle: saline 104 % of control

CCCC1C(=O)N2C(N(C)C)=Nc3ccc(C)cc3N2C1=O (stereo unspecified)
inactive: dose: 50.0 mg/kg/injection, schedule: Q01DX009 (ip), vehicle: carboxymethylcellulose (CMC) 101 % of control | [4] 110 % of control | dose: 100.0 mg/kg/injection, schedule: Q01DX009 (ip), vehicle: carboxymethylcellulose (CMC) 101 % of control | [5] 98 % of control | dose: 200.0 mg/kg/injection, schedule: Q01DX009 (ip), vehicle: carboxymethylcellulose (CMC) 101 % of control | [6] 93 % of control | dose: 400.0 mg/kg/injection, schedule: Q01DX009 (ip), vehicle: carboxymethylcellulose (CMC) 92 % of control

ClC(Cl)=C(c1ccc(Cl)cc1)c1ccc(Cl)cc1
inactive: [4] 101 % of control | dose: 100.0 mg/kg/injection, schedule: Q04DX002 (ip), vehicle: gum acacia 114 % of control | [5] 110 % of control | dose: 200.0 mg/kg/injection, schedule: Q04DX002 (ip), vehicle: gum acacia 91 % of control | [6] 98 % of control | dose: 400.0 mg/kg/injection, schedule: Q04DX002 (ip), vehicle: gum acacia 100 % of control

CC(=O)Nc1ccc(S(=O)(=O)C(Cl)c2ccccc2)cc1 (stereo unspecified)
inactive: [4] 103 % of control | [5] 103 % of control | [6] 98 % of control

O=C1CC2OCC=C3CN4CCC56c7ccccc7N1C5C2C3CC46 (stereo unspecified) (tested in a mixture with another compound)
inactive: dose: 0.12 mg/kg/injection, schedule: Q04DX003 (ip), vehicle: saline + Tween-80 + alkali 102 % of control | dose: 0.12 mg/kg/injection, schedule: Q04DX003 (ip), vehicle: saline 104 % of control | dose: 0.19 mg/kg/injection, schedule: Q04DX003 (ip), vehicle: alcohol 106 % of control | dose: 0.19 mg/kg/injection, schedule: Q04DX003 (ip), vehicle: saline + Tween-80 + alkali 100 % of control | dose: 0.19 mg/kg/injection, schedule: Q04DX003 (ip), vehicle: saline 104 % of control | dose: 0.25 mg/kg/injection, schedule: Q04DX003 (ip), vehicle: Klucel (hydroxypropylcellulose) (HPC) 101 % of control | dose: 0.28 mg/kg/injection, schedule: Q04DX003 (ip), vehicle: saline + Tween-80 + alkali 98 % of control | dose: 0.28 mg/kg/injection, schedule: Q04DX003 (ip), vehicle: saline 104 % of control | dose: 0.39 mg/kg/injection, schedule: Q01DX009 (ip), vehicle: saline 98 % of control and 95 % of control | dose: 0.39 mg/kg/injection, schedule: Q04DX003 (ip), vehicle: alcohol 103 % of control | dose: 0.5 mg/kg/injection, schedule: Q04DX003 (ip), vehicle: Klucel (hydroxypropylcellulose) (HPC) 93 % of control | dose: 0.75 mg/kg/injection, schedule: Q01DX009 (ip), vehicle: Klucel (hydroxypropylcellulose) (HPC) 92 % of control | dose: 0.78 mg/kg/injection, schedule: Q01DX009 (ip), vehicle: saline 101 % of control and 110 % of control | dose: 0.78 mg/kg/injection, schedule: Q04DX003 (ip), vehicle: alcohol 103 % of control | dose: 0.78 mg/kg/injection, schedule: Q04DX003 (ip), vehicle: saline + alcohol 102 % of control | dose: 0.78 mg/kg/injection, schedule: Q04DX003 (ip), vehicle: saline 100 % of control | dose: 1.0 mg/kg/injection, schedule: Q04DX003 (ip), vehicle: Klucel (hydroxypropylcellulose) (HPC) 101 % of control | dose: 1.5 mg/kg/injection, schedule: Q01DX009 (ip), vehicle: Klucel (hydroxypropylcellulose) (HPC) 97 % of control | dose: 1.5 mg/kg/injection, schedule: Q04DX003 (ip), vehicle: Klucel (hydroxypropylcellulose) (HPC) 100 % of control | dose: 1.56 mg/kg/injection, schedule: Q01DX009 (ip), vehicle: saline 90 % of control and 100 % of control | dose: 1.56 mg/kg/injection, schedule: Q04DX003 (ip), vehicle: alcohol 93 % of control | dose: 1.56 mg/kg/injection, schedule: Q04DX003 (ip), vehicle: saline + alcohol 93 % of control | dose: 1.56 mg/kg/injection, schedule: Q04DX003 (ip), vehicle: saline 93 % of control | dose: 6.0 mg/kg/injection, schedule: Q04DX003 (ip), vehicle: Klucel (hydroxypropylcellulose) (HPC) 110 % of control

N#CC(C(N)=O)C1CC(=O)Oc2ccccc21 (stereo unspecified)
inactive: dose: 50.0 mg/kg/injection, schedule: Q01DX009 (ip), vehicle: Klucel (hydroxypropylcellulose) (HPC) 100 % of control | dose: 100.0 mg/kg/injection, schedule: Q01DX009 (ip), vehicle: Klucel (hydroxypropylcellulose) (HPC) 105 % of control | dose: 200.0 mg/kg/injection, schedule: Q01DX009 (ip), vehicle: Klucel (hydroxypropylcellulose) (HPC) 100 % of control

COC1/C=C/OC2(C)Oc3c(C)c(O)c4c(O)c(c(C=NOC(c5ccccc5)c5ccccc5)c(O)c4c3C2=O)NC(=O)/C(C)=C/C=C/C(C)C(O)C(C)C(O)C(C)C(OC(C)=O)C1C (stereo unspecified)
inactive: dose: 25.0 mg/kg/injection, schedule: Q04DX003 (ip), vehicle: water 102 % of control | dose: 50.0 mg/kg/injection, schedule: Q04DX003 (ip), vehicle: water 102 % of control | dose: 100.0 mg/kg/injection, schedule: Q04DX003 (ip), vehicle: water 96 % of control | dose: 200.0 mg/kg/injection, schedule: Q04DX003 (ip), vehicle: water 98 % of control
